These are literature values, as cited in publication PMC10323144, “Garbage in, garbage out: how reliable training data improved a virtual screening approach against SARS-CoV-2 MPro” (Frontiers in Pharmacology, 2023).

Numbered stars: 1 amine (or outer) side, 2 acyl side, 3 side chain; on linkers, the order of the positions; unused ones are H or OH. Bridge positions count the residues as written; N and C are the ends. Square brackets hold non-standard residues; d marks the D form. Peptide text beside a SMILES is read from it. * marks the point of attachment. hTyr(3S-OH,4S-OH,3'-OSO3H) = N[C@H](C(=O)O)[C@H](O)[C@@H](O)c1ccc(O)c(OS(=O)(=O)O)c1; Orn(4R-OH,5R-OH) = O=C([C@H](C[C@@H](O)[C@@H](O)N[*:3])N[*:1])[*:2]; Pro(3S-OH,4S-Me) = C[C@H]1CN[C@H](C(=O)O)[C@H]1O; X1 = CCCCCOc1ccc(-c2cc(-c3ccc(C(=O)*)cc3)no2)cc1; Gln(3R-OH) = NC(=O)C[C@@H](O)[C@H](N)C(=O)O; Hyp = O=C(O)[C@@H]1C[C@@H](O)CN1; Cbz = O=C(OCc1ccccc1)*; Nva = CCC[CH](N)C(=O)O

This series concerns MPro. As to conditions: compiled from peer-reviewed sources (287 compounds) ref the 18 original articles; cited from earlier work.

Consider `CCOC(=O)c1nc(S(C)(=O)=O)ncc1Cl` [LON-WEI-ff7b210a-5], for which the “Class (MPro activity class)” value is 1 (Compounds with IC50 < 10 µM or with a percentage of enzyme inhibition >50% at 10 µM were labelled as ACTIVE).

With `O=C(O)c1nn(Cc2ccc(Cl)cc2Cl)c2ccccc12` [LONIDAMINE], the “Class (MPro activity class)” value is on record as 0 (compounds with IC50 > 20 μM, percentage inhibition <80% at 20 µM or 50 μM, or percentage enzyme inhibition <50% at 10 µM were labelled as INACTIVE).

As for `CC(NC(=O)C(O)c1cc(F)cc(F)c1)C(=O)NC1C(=O)N(C)c2ccccc2-c2ccccc21` (centres unmarked) [LY411575], the “Class (MPro activity class)” value is 0 (compounds with IC50 > 20 μM, percentage inhibition <80% at 20 µM or 50 μM, or percentage enzyme inhibition <50% at 10 µM were labelled as INACTIVE).

On to `C[C@@]1(c2cc(-c3cncnc3)c(F)cc2F)CCSC(N)=N1` [LY2811376], for which the “Class (MPro activity class)” value is given as 0 (compounds with IC50 > 20 μM, percentage inhibition <80% at 20 µM or 50 μM, or percentage enzyme inhibition <50% at 10 µM were labelled as INACTIVE).

Regarding `CC(=O)N[C@@H](CC(C)C)C(=O)N[C@@H](CC(C)C)C(=O)N[C@H](C=O)CCCNC(=N)N` [Leupeptin], the “Class (MPro activity class)” value is on record as 0 (compounds with IC50 > 20 μM, percentage inhibition <80% at 20 µM or 50 μM, or percentage enzyme inhibition <50% at 10 µM were labelled as INACTIVE).

As to `CC#CCn1c(N2CCCC(N)C2)nc2c1c(=O)n(Cc1nc(C)c3ccccc3n1)c(=O)n2C` (centres unmarked) [Linafliptin], the “Class (MPro activity class)” value is recorded as 0 (compounds with IC50 > 20 μM, percentage inhibition <80% at 20 µM or 50 μM, or percentage enzyme inhibition <50% at 10 µM were labelled as INACTIVE).

For the compound `COC(=O)C1=CO[C@@H](O[C@@H]2O[C@H](CO)[C@@H](O)[C@H](O)[C@H]2O)[C@@H]2[C@@H](C)[C@@H](O)C[C@H]12` [Loganin], the “Class (MPro activity class)” value is listed as 0 (compounds with IC50 > 20 μM, percentage inhibition <80% at 20 µM or 50 μM, or percentage enzyme inhibition <50% at 10 µM were labelled as INACTIVE).

For `CC(C)(C)C#Cc1cc(N(C(=O)[C@H]2CC[C@H](C)CC2)[C@H]2CC[C@H](O)CC2)c(C(=O)O)s1` [Lomibuvir], the “Class (MPro activity class)” value was 0 (compounds with IC50 > 20 μM, percentage inhibition <80% at 20 µM or 50 μM, or percentage enzyme inhibition <50% at 10 µM were labelled as INACTIVE).

Regarding `CC(C)CCNC(=O)C(CC(C)C)NC(=O)C1OC1C(=O)O` (centres unmarked) [Loxistatin Acid], the “Class (MPro activity class)” value is reported as 0 (compounds with IC50 > 20 μM, percentage inhibition <80% at 20 µM or 50 μM, or percentage enzyme inhibition <50% at 10 µM were labelled as INACTIVE).

As for `O=c1cc(-c2ccc(O)c(O)c2)oc2cc(O[C@@H]3O[C@H](CO)[C@@H](O)[C@H](O)[C@H]3O)cc(O)c12` [Luteoloside], the “Class (MPro activity class)” value is 0 (compounds with IC50 > 20 μM, percentage inhibition <80% at 20 µM or 50 μM, or percentage enzyme inhibition <50% at 10 µM were labelled as INACTIVE).

For `O=C(CCl)N1CCN(S(=O)(=O)C2=CC[SH]=C2)CC1` [MAK-UNK-d4768348-1], the “Class (MPro activity class)” value is 1 (Compounds with IC50 < 10 µM or with a percentage of enzyme inhibition >50% at 10 µM were labelled as ACTIVE).

Turning to `COc1ccc(C2CC(c3cccs3)=NN2C(=O)CCl)cc1OC` (centres unmarked) [MAT-POS-916a2c5a-1], the “Class (MPro activity class)” value is 1 (Compounds with IC50 < 10 µM or with a percentage of enzyme inhibition >50% at 10 µM were labelled as ACTIVE).

On to `COc1ccccc1OCCNC(=O)c1cc(=O)[nH]c2ccccc12` [MAT-POS-916a2c5a-2], for which the “Class (MPro activity class)” value is reported as 1 (Compounds with IC50 < 10 µM or with a percentage of enzyme inhibition >50% at 10 µM were labelled as ACTIVE).

As to `Cc1cc(C)c(C)c(S(=O)(=O)N2CCN(C(=O)c3cc(=O)[nH]c4ccccc34)CC2)c1C` [MAT-POS-916a2c5a-3], the “Class (MPro activity class)” value is listed as 1 (Compounds with IC50 < 10 µM or with a percentage of enzyme inhibition >50% at 10 µM were labelled as ACTIVE).

Regarding `O=C(CCl)N1CCN(S(=O)(=O)c2ccsc2)CC1` [MAT-POS-ee51dedd-2], the “Class (MPro activity class)” value is on record as 1 (Compounds with IC50 < 10 µM or with a percentage of enzyme inhibition >50% at 10 µM were labelled as ACTIVE).

For the compound `CC1CN(Cc2cccc(Cl)c2)CCN1C(=O)CCl` (centres unmarked) [MED-COV-4280ac29-13], the “Class (MPro activity class)” value is 1 (Compounds with IC50 < 10 µM or with a percentage of enzyme inhibition >50% at 10 µM were labelled as ACTIVE).

As to `O=C(CCl)N1CCN(Cc2cccc(Cl)c2)CC1` [MED-COV-4280ac29-15], the “Class (MPro activity class)” value is given as 1 (Compounds with IC50 < 10 µM or with a percentage of enzyme inhibition >50% at 10 µM were labelled as ACTIVE).

Regarding `COc1ccc(C2CC(c3ccccc3)=NN2C(=O)CCl)cc1OC` (centres unmarked) [MED-COV-4280ac29-30], the “Class (MPro activity class)” value is 1 (Compounds with IC50 < 10 µM or with a percentage of enzyme inhibition >50% at 10 µM were labelled as ACTIVE).

Consider `O=C(CCl)N1CCN(Cc2cccc3ccccc23)CC1` [MED-COV-4280ac29-31], for which the “Class (MPro activity class)” value was 1 (Compounds with IC50 < 10 µM or with a percentage of enzyme inhibition >50% at 10 µM were labelled as ACTIVE).

With `COCc1cc(Cl)cc(CN2CCN(C(=O)CCl)CC2)c1` [MED-COV-4280ac29-33], the “Class (MPro activity class)” value is 1 (Compounds with IC50 < 10 µM or with a percentage of enzyme inhibition >50% at 10 µM were labelled as ACTIVE).

Turning to `COCCc1ccc(Cl)cc1CN1CCN(C(=O)CCl)CC1` [MED-COV-4280ac29-37], the “Class (MPro activity class)” value is recorded as 1 (Compounds with IC50 < 10 µM or with a percentage of enzyme inhibition >50% at 10 µM were labelled as ACTIVE).

Regarding `CCCC(C=O)NC(=O)C(CC(C)C)NC(=O)C(CC(C)C)NC(=O)OCc1ccccc1` (stereo not drawn) [MG-115] (Cbz-Leu-Leu-[Nva]-aldehyde; configuration not given here), the “Class (MPro activity class)” value is 1 (Compounds with IC50 < 10 µM or with a percentage of enzyme inhibition >50% at 10 µM were labelled as ACTIVE).

Consider `CC(C)C[C@@H](C=O)NC(=O)[C@H](CC(C)C)NC(=O)[C@H](CC(C)C)NC(=O)OCc1ccccc1` [MG-132] (Cbz-Leu-Leu-Leu-aldehyde), for which the “Class (MPro activity class)” value is 1 (Compounds with IC50 < 10 µM or with a percentage of enzyme inhibition >50% at 10 µM were labelled as ACTIVE).

Regarding `NS(=O)(=O)CCc1ccccc1CN1CCN(C(=O)CCl)CC1` [MIH-UNI-e573136b-5], the “Class (MPro activity class)” value is listed as 1 (Compounds with IC50 < 10 µM or with a percentage of enzyme inhibition >50% at 10 µM were labelled as ACTIVE).

`O=C(O)CC[C@H]1CC[C@@](c2cc(F)ccc2F)(S(=O)(=O)c2ccc(Cl)cc2)CC1` [MK-0752]: the “Class (MPro activity class)” value was 0 (compounds with IC50 > 20 μM, percentage inhibition <80% at 20 µM or 50 μM, or percentage enzyme inhibition <50% at 10 µM were labelled as INACTIVE).

As to `CC(C)C[C@H](NC(=O)CNC(=O)c1cc(Cl)ccc1Cl)B(O)O` [MLN2238], the “Class (MPro activity class)” value is reported as 0 (compounds with IC50 > 20 μM, percentage inhibition <80% at 20 µM or 50 μM, or percentage enzyme inhibition <50% at 10 µM were labelled as INACTIVE).

In the case of `CCCCCOc1ccc(-c2cc(-c3ccc(C(=O)N[C@H]4C[C@@H](O)[C@@H](O)NC(=O)[C@@H]5[C@@H](O)[C@@H](C)CN5C(=O)[C@H]([C@H](O)CC(N)=O)NC(=O)[C@H]([C@H](O)[C@@H](O)c5ccc(O)c(OS(=O)(=O)O)c5)NC(=O)[C@@H]5C[C@@H](O)CN5C(=O)[C@H]([C@@H](C)O)NC4=O)cc3)no2)cc1` [Micafungin] (X1-[Orn(4R-OH,5R-OH)]T[Hyp][hTyr(3S-OH,4S-OH,3'-OSO3H)][Gln(3R-OH)][Pro(3S-OH,4S-Me)]; lactam 1-C), the “Class (MPro activity class)” value was 0 (compounds with IC50 > 20 μM, percentage inhibition <80% at 20 µM or 50 μM, or percentage enzyme inhibition <50% at 10 µM were labelled as INACTIVE).

Take `O=c1c(O)c(-c2cc(O)c(O)c(O)c2)oc2cc(O)cc(O)c12` [Myricetin]: the “Class (MPro activity class)” value is recorded as 1 (Compounds with IC50 < 10 µM or with a percentage of enzyme inhibition >50% at 10 µM were labelled as ACTIVE).

As to `COc1ccc2c(c1)CN(C(=O)CCl)C(c1ccccc1)C2` (centres unmarked) [NAU-LAT-64f4b287-4], the “Class (MPro activity class)” value is on record as 1 (Compounds with IC50 < 10 µM or with a percentage of enzyme inhibition >50% at 10 µM were labelled as ACTIVE).

With `Cc1cc(Cl)cc(CC2CCN(C(=O)CCl)CC2)c1` [NIR-THE-0d6461ce-8], the “Class (MPro activity class)” value was 1 (Compounds with IC50 < 10 µM or with a percentage of enzyme inhibition >50% at 10 µM were labelled as ACTIVE).

`Nc1cccc(C2CN(C(=O)CCl)Cc3ccccc32)c1` (centres unmarked) [NIR-THE-c331be7a-1]: the “Class (MPro activity class)” value is 1 (Compounds with IC50 < 10 µM or with a percentage of enzyme inhibition >50% at 10 µM were labelled as ACTIVE).

Turning to `N#Cc1cccc(C2CN(C(=O)CCl)Cc3ccccc32)c1` (centres unmarked) [NIR-THE-c331be7a-2], the “Class (MPro activity class)” value was 1 (Compounds with IC50 < 10 µM or with a percentage of enzyme inhibition >50% at 10 µM were labelled as ACTIVE).

As for `Cc1cccc(C2CN(C(=O)CCl)Cc3ccccc32)c1` (centres unmarked) [NIR-THE-c331be7a-6], the “Class (MPro activity class)” value is listed as 1 (Compounds with IC50 < 10 µM or with a percentage of enzyme inhibition >50% at 10 µM were labelled as ACTIVE).

For the compound `N=C(N)c1ccc2cc(OC(=O)c3ccc(N=C(N)N)cc3)ccc2c1` [Nafamostat], the “Class (MPro activity class)” value was 0 (compounds with IC50 > 20 μM, percentage inhibition <80% at 20 µM or 50 μM, or percentage enzyme inhibition <50% at 10 µM were labelled as INACTIVE).

Take `CCCC[C@H](NC(=O)[C@@H]1[C@@H]2[C@H](CN1C(=O)[C@@H](NC(=O)NC1(CS(=O)(=O)C(C)(C)C)CCCCC1)C(C)(C)C)C2(C)C)C(=O)C(=O)NC1CC1` [Narlaprevir]: the “Class (MPro activity class)” value is reported as 1 (Compounds with IC50 < 10 µM or with a percentage of enzyme inhibition >50% at 10 µM were labelled as ACTIVE).

Regarding `Cc1c(O)cccc1C(=O)N[C@@H](CSc1ccccc1)[C@H](O)CN1C[C@H]2CCCC[C@H]2C[C@H]1C(=O)NC(C)(C)C` [Nelfinavir], the “Class (MPro activity class)” value is listed as 0 (compounds with IC50 > 20 μM, percentage inhibition <80% at 20 µM or 50 μM, or percentage enzyme inhibition <50% at 10 µM were labelled as INACTIVE).

For `COc1ccc(CC(NC(=O)C(C)NC(=O)CN2CCOCC2)C(=O)NC(Cc2ccccc2)C(=O)C2(C)CO2)cc1` (centres unmarked) [ONX-0914], the “Class (MPro activity class)” value was 0 (compounds with IC50 > 20 μM, percentage inhibition <80% at 20 µM or 50 μM, or percentage enzyme inhibition <50% at 10 µM were labelled as INACTIVE).

As for `CC(C)(F)C[C@H](N[C@@H](c1ccc(-c2ccc(S(C)(=O)=O)cc2)cc1)C(F)(F)F)C(=O)NC1(C#N)CC1` [Odanacatib], the “Class (MPro activity class)” value is on record as 0 (compounds with IC50 > 20 μM, percentage inhibition <80% at 20 µM or 50 μM, or percentage enzyme inhibition <50% at 10 µM were labelled as INACTIVE).
